The assay concerns P388 leukemia ip, CD2F1 mice, survival T/C. As to the kind of experiment: NCI In Vivo Anticancer Drug Screen. Data for tumor model P388 Leukemia (intraperitoneal) in CD2F1 (CDF1) mice. The note with it: endpoint: median survival time, higher = longer survival. An outline of the steps: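 Mice carrying the transplanted tumor received test compound or vehicle. Survival was recorded in each group, and the value is the treated-group measurement divided by that of the vehicle-treated control group.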

[1] abbreviates: dose: 100.0 mg/kg/injection, schedule: Q01DX001 (ip), vehicle: Klucel (hydroxypropylcellulose) (HPC).
[2] abbreviates: dose: 100.0 mg/kg/injection, schedule: Q01DX009 (ip), vehicle: saline with Tween-80.
[3] abbreviates: dose: 200.0 mg/kg/injection, schedule: Q01DX009 (ip), vehicle: saline with Tween-80.
[4] abbreviates: dose: 50.0 mg/kg/injection, schedule: Q01DX009 (ip), vehicle: saline.
[5] abbreviates: dose: 100.0 mg/kg/injection, schedule: Q01DX009 (ip), vehicle: saline.
[6] abbreviates: dose: 200.0 mg/kg/injection, schedule: Q01DX009 (ip), vehicle: saline.
Setting [7] is: dose: 50.0 mg/kg/injection, schedule: Q01DX005 (ip), vehicle: saline with Tween-80.
Setting [8] is: dose: 100.0 mg/kg/injection, schedule: Q01DX005 (ip), vehicle: saline with Tween-80.
Setting [9] is: dose: 50.0 mg/kg/injection, schedule: Q01DX009 (ip), vehicle: saline with Tween-80.
Where [10] appears, read: dose: 60.0 mg/kg/injection, schedule: Q01DX005 (ip), vehicle: saline with Tween-80.
Where [11] appears, read: dose: 120.0 mg/kg/injection, schedule: Q01DX005 (ip), vehicle: saline with Tween-80.
[12] abbreviates: dose: 240.0 mg/kg/injection, schedule: Q01DX005 (ip), vehicle: saline with Tween-80.
Setting [13] is: dose: 50.0 mg/kg/injection, schedule: Q01DX009 (ip), vehicle: Klucel (hydroxypropylcellulose) (HPC).
[14] abbreviates: dose: 100.0 mg/kg/injection, schedule: Q01DX009 (ip), vehicle: Klucel (hydroxypropylcellulose) (HPC).
The mark [15] stands for this setting: dose: 200.0 mg/kg/injection, schedule: Q01DX009 (ip), vehicle: Klucel (hydroxypropylcellulose) (HPC).

In PubChem BioAssay AID330 (DTP/NCI, 2004) one finds T/C data, which are given here for 25 molecules.

Several values for one entry are separate records, joined by “and”; a condition that tells them apart may be missing. Equal entries are not always repeated. Inconclusive results and toxic doses are left out.

For `OC1CC2CCCCC2CC1C1CCCCC1` (stereo not drawn), the T/C by setting is: under setting [1], 90 % of control; (dose: 200.0 mg/kg/injection, schedule: Q01DX001 (ip), vehicle: Klucel (hydroxypropylcellulose) (HPC)) 91 % of control; (dose: 400.0 mg/kg/injection, schedule: Q01DX001 (ip), vehicle: Klucel (hydroxypropylcellulose) (HPC)) 94 % of control.

Turning to `COc1cc(OC)c(OC)cc1/C=C/c1ccc2ccccc2n1`, the T/C by setting is: under setting [2], 110 % of control; under setting [3], 110 % of control; (dose: 400.0 mg/kg/injection, schedule: Q01DX009 (ip), vehicle: saline with Tween-80) 110 % of control.

On to `CCCCC#CC(=O)O`, for which the T/C is 103 % of control under setting [4] and 94 % of control under setting [5].

For the molecule `CC1=CC(C)=Nc2ccccc2N1`, the T/C was 103 % of control under setting [4]; 99 % of control and 101 % of control under setting [5]; 94 % of control under setting [6].

With `CNC(=O)Sc1ccc(C)c(N(C)C)c1`, the T/C is, setting by setting: under setting [7], 111 % of control and 117 % of control; under setting [8], 120 % of control.

As for `COc1ccc(CCNC(=O)CCN2C(=O)CCC2=O)cc1OC`, the T/C was 105 % of control (dose: 100.0 mg/kg/injection, schedule: Q01DX009 (ip), vehicle: saline sonified); 105 % of control (dose: 200.0 mg/kg/injection, schedule: Q01DX009 (ip), vehicle: saline sonified); 110 % of control (dose: 400.0 mg/kg/injection, schedule: Q01DX009 (ip), vehicle: saline sonified).

For `BrCCN(CCBr)c1ccc2c3c(cccc13)-c1ccccc1-2`, the T/C was 160 % of control and 163 % of control (dose: 4.0 mg/kg/injection, schedule: Q01DX009 (ip), vehicle: saline with Tween-80); 178 % of control (dose: 6.0 mg/kg/injection, schedule: Q01DX009 (ip), vehicle: saline with Tween-80); 154 % of control (dose: 6.25 mg/kg/injection, schedule: Q01DX009 (ip), vehicle: saline with Tween-80); 117 % of control (dose: 9.0 mg/kg/injection, schedule: Q01DX009 (ip), vehicle: saline with Tween-80); 104 % of control (dose: 100.0 mg/kg/injection, schedule: Q04DX003 (ip), vehicle: saline with Tween-80); 104 % of control (dose: 200.0 mg/kg/injection, schedule: Q04DX003 (ip), vehicle: saline with Tween-80).

As to `COn1nnc2c([N+](=O)[O-])cccc21`, the T/C runs as follows: (dose: 12.5 mg/kg/injection, schedule: Q01DX009 (ip), vehicle: saline with Tween-80) 100 % of control; (dose: 25.0 mg/kg/injection, schedule: Q01DX009 (ip), vehicle: saline with Tween-80) 94 % of control; under setting [9], 98 % of control.

For `Cn1c2nc(-[n+]3ccc(Cc4ccccc4)cc3)nc-2c([O-])n(C)c1=O`, the T/C (dose: 100.0 mg/kg/injection, schedule: Q04DX002 (ip), vehicle: saline) is 100 % of control; the T/C (dose: 200.0 mg/kg/injection, schedule: Q04DX002 (ip), vehicle: saline) is 99 % of control; the T/C (dose: 400.0 mg/kg/injection, schedule: Q04DX002 (ip), vehicle: saline) was 95 % of control.

For `COc1cc2c(cc1O)-c1c(cnn1-c1ccccc1)CCC2`, the T/C runs as follows: under setting [4], 119 % of control; under setting [5], 118 % of control; under setting [6], 94 % of control.

In the case of `COc1cc(C(Nc2ncccn2)c2cc3c(cc2O)OCO3)cc(OC)c1OC` (stereo not drawn), the T/C is 100 % of control under setting [10], 92 % of control under setting [11] and 90 % of control under setting [12].

`O=C(O)c1ccc(N=Nc2ccc(N(CCCl)CCCl)cc2C(=O)O)cc1`: the T/C was 100 % of control (dose: 50.0 mg/kg/injection, schedule: Q01DX001 (ip), vehicle: Klucel (hydroxypropylcellulose) (HPC)) and 107 % of control under setting [1].

Regarding `Cc1ccc(C)n1-n1nnnc1N`, the T/C under setting [7] is 101 % of control and the T/C under setting [8] is 100 % of control.

`O=c1[nH]c(=O)c2[nH]c(=O)[nH]c(=O)c2[nH]1`: the T/C (dose: 50.0 mg/kg/injection, schedule: Q01DX005 (ip), vehicle: Klucel (hydroxypropylcellulose) (HPC)) was 99 % of control; the T/C (dose: 100.0 mg/kg/injection, schedule: Q01DX005 (ip), vehicle: Klucel (hydroxypropylcellulose) (HPC)) was 96 % of control; the T/C (dose: 200.0 mg/kg/injection, schedule: Q01DX005 (ip), vehicle: Klucel (hydroxypropylcellulose) (HPC)) is 103 % of control.

Regarding `Cc1noc2c1C(=O)c1ccccc1SC2`, the T/C is, setting by setting: under setting [10], 103 % of control; under setting [11], 94 % of control; under setting [12], 105 % of control.

Regarding `CCCC(=O)ON(C)C(=O)CCC`, the T/C is, setting by setting: under setting [8], 96 % of control; (dose: 200.0 mg/kg/injection, schedule: Q01DX005 (ip), vehicle: saline with Tween-80) 105 % of control; (dose: 400.0 mg/kg/injection, schedule: Q01DX005 (ip), vehicle: saline with Tween-80) 117 % of control.

Regarding `CCCSc1nc2ccc(NC(=O)/C=C/C(=O)O)cc2s1`, the T/C is, setting by setting: under setting [13], 107 % of control; under setting [14], 96 % of control; under setting [15], 103 % of control.

With `COc1ccccc1/C=N/NC(=O)Cc1ccccc1`, the T/C runs as follows: under setting [9], 101 % of control; under setting [2], 91 % of control; under setting [3], 93 % of control.

In the case of `CC(=O)Nc1cc2cc(NC=C(C#N)C#N)ccc2oc1=O`, the T/C runs as follows: (dose: 60.0 mg/kg/injection, schedule: Q01DX005 (ip), vehicle: Klucel + Tween-80) 96 % of control; (dose: 120.0 mg/kg/injection, schedule: Q01DX005 (ip), vehicle: Klucel + Tween-80) 92 % of control.

On to `Clc1cccc(Cl)c1CSc1nc2ccccc2n2cccc12`, for which the T/C runs as follows: under setting [13], 102 % of control; under setting [14], 105 % of control; under setting [15], 105 % of control.

Consider `O=C(CCl)NC(Cc1ccc(N(CCCl)CCCl)cc1)C(=O)O` (stereo not drawn), for which the T/C is 113 % of control and 96 % of control (dose: 0.25 mg/kg/injection, schedule: Q01DX009 (ip), vehicle: Klucel (hydroxypropylcellulose) (HPC)); 109 % of control and 115 % of control (dose: 0.5 mg/kg/injection, schedule: Q01DX009 (ip), vehicle: Klucel (hydroxypropylcellulose) (HPC)); 102 % of control and 115 % of control (dose: 1.0 mg/kg/injection, schedule: Q01DX009 (ip), vehicle: Klucel (hydroxypropylcellulose) (HPC)); 107 % of control (dose: 2.0 mg/kg/injection, schedule: Q01DX001 (ip), vehicle: Klucel (hydroxypropylcellulose) (HPC)); 108 % of control (dose: 4.0 mg/kg/injection, schedule: Q01DX001 (ip), vehicle: Klucel (hydroxypropylcellulose) (HPC)); 119 % of control (dose: 8.0 mg/kg/injection, schedule: Q01DX001 (ip), vehicle: Klucel (hydroxypropylcellulose) (HPC)). Moreover, the T/C is 166 % of control (dose: 128.0 mg/kg/injection, schedule: Q01DX009 (ip), vehicle: Klucel (hydroxypropylcellulose) (HPC)) and 223 % of control (dose: 256.0 mg/kg/injection, schedule: Q01DX009 (ip), vehicle: Klucel (hydroxypropylcellulose) (HPC)).

With `CN(C)CC1CC/C=C\C(c2ccccc2)N(C)C1c1ccccc1` (stereo not drawn), the T/C was 105 % of control (dose: 100.0 mg/kg/injection, schedule: Q04DX003 (ip), vehicle: suspension in saline); 116 % of control (dose: 200.0 mg/kg/injection, schedule: Q04DX003 (ip), vehicle: suspension in saline); 99 % of control (dose: 400.0 mg/kg/injection, schedule: Q04DX003 (ip), vehicle: suspension in saline).

As to `CC(=O)OC1CC2CCC1(CC(=O)c1ccccc1)C2(C)C` (stereo not drawn), the T/C by setting is: under setting [9], 96 % of control; under setting [2], 92 % of control; under setting [3], 100 % of control.

For the molecule `OCCn1nc2c(c1-c1ccncc1)CCCc1ccccc1-2`, the T/C was 97 % of control (dose: 100.0 mg/kg/injection, schedule: Q04DX002 (ip), vehicle: saline with Tween-80); 94 % of control (dose: 200.0 mg/kg/injection, schedule: Q04DX002 (ip), vehicle: saline with Tween-80); 94 % of control (dose: 400.0 mg/kg/injection, schedule: Q04DX002 (ip), vehicle: saline with Tween-80).

For the molecule `CN1CCN(c2ncc(S(=O)(=O)Cc3ccc(Cl)cc3)c(N)n2)CC1`, the T/C was 95 % of control (dose: 100.0 mg/kg/injection, schedule: Q01DX001 (ip), vehicle: saline); 98 % of control (dose: 200.0 mg/kg/injection, schedule: Q01DX001 (ip), vehicle: saline); 98 % of control (dose: 400.0 mg/kg/injection, schedule: Q01DX001 (ip), vehicle: saline).
